Columns and labels:
[1] = target: T1, Central CCK Receptors (Mus musculus, UniProt P56481); assay: Binding to central CCK receptors ([3H]-pentagastrin displacement, mouse cerebral cortical membranes); parameters: species or system mouse (male CFLP); conditions: tritiated pentagastrin 2 nM, number of assays (n) = 2
T1 construct: from tissue; host or cells: cerebral cortex of male CFLP mice (washed membranes)
T1 sequence (P56481 1-453): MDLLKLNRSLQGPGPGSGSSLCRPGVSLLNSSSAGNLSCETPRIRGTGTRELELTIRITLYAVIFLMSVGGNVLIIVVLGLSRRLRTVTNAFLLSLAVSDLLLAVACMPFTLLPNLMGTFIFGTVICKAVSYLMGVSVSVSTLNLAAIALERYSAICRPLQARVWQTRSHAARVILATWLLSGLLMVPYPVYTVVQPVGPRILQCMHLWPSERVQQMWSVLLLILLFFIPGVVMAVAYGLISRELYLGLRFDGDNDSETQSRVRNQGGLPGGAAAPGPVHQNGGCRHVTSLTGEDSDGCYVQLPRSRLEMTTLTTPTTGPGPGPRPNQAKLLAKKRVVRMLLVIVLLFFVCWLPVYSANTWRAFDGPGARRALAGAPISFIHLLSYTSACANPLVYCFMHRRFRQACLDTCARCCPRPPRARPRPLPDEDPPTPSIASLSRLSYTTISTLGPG
Procedure: (§1) The biological activity of compounds of the present invention was evaluated employing an initial screening test which rapidly and accurately measured the binding of the tested compound to known CCK receptor sites. […] (See Hays et al, Neuropeptides 1:53-62, 1980; and Satuer et al, Science, 208:1155-1156, 1980.
(§2) In this screening test, the cerebral cortices taken from male CFLP mice weighing between 30-40 g were dissected on ice, weighed, and homogenized in 10 volumes of 50 mM Tris-HCl buffer (pH 7.4 at 0°-4° C.). The resulting suspension was centrifuged, the supernate was discarded, and the pellet was washed by resuspension in Tris-HCl buffer followed by recentrifugation. The final pellet was resuspended in 20 volumes of […] Hepes buffer (pH 7.2 at 23° C.) containing 130 mM NaCl, […] KCl, […] MgCl2, […] EDTA, 5 mg/mL bovine albumin, and bacitracin (0.25 mg/mL).
(§3) In saturation studies, cerebral cortical membranes were incubated at 23° C. for 120 minutes in a final volume of 500 μliter of Hepes incubation buffer (pH 7.2) together with 0.2-20 nM tritiated-pentagastrin (Amersham International, England).
(§4) In the displacement experiments, membranes were incubated with a single concentration (2 nM) of ligand, together with increasing concentrations ([…]) of competitive test compound. In each case, the nonspecific binding was defined as that persisting in the presence of the unlabeled octapeptide CCK26-33 (10^-6 M).
(§5) Following incubation, radioactivity bound to membranes was separated from that free in solution by rapid filtration through Whatman GF/B filters and washed three times with 4 mL of ice cold Tris-HCl buffer. Filters from samples incubated with tritiated-pentagastrin were placed in polyethylene vials with 4 mL of scintillation cocktail, and the radioactivity was estimated by liquid scintillation spectrometry (efficiency 47% to 52%).
(§6) The specific binding to CCK receptor sites was defined as the total bound tritiated-pentagastrin minus the amount of tritiated-pentagastrin bound in the presence of 10^-6 octapeptide, CCK26-33.
(§7) Saturation curves for specific tritiated-pentagastrin binding to mouse cortical membranes were analyzed by the methods of Scatchard (Ann. New York Acad. Sci. 51:660 672, 1949, and Hill (J. Physiol. 40:IV-VIII, 1910, to provide estimates for the maximum number of binding sites (Bmax) and the equilibrium dissociation constant ([…]).
(§8) In displacement experiments, inhibition curves were analyzed by either logit-log plots or the iterative curve fitting computer program ALLFIT (DeLean, Munson and Redbard, 1978) to provide estimates of the IC50 and nH (apparent Hill coefficient) values). (IC50 values were defined as the concentration of test compound required to produce 50% inhibition of specific binding.)
(§9) The inhibition constant (Ki) of the test compound was then calculated according to the Cheng-Prusoff equation: [formula] where [L] is the concentration of radiolabel and Ka is the equilibrium dissociation constant.
The Ki values for several representative compounds of the present invention are present in Table II.

[2] = target: T2, CCK-B receptor (Mus musculus, UniProt P56481); assay: Binding to the CCK-B receptor (Table III); parameters: species or system mouse (male CFLP)
T2 construct: from tissue
T2 sequence (P56481 1-453): T1 sequence (P56481 1-453)
Procedure: as §1, §2, §3, §4, §5, §6, §7, §8, §9

CC1(C(=O)N[C@H](CO)Cc2ccccc2)Cc2c([nH]c3ccccc23)CN1C(=O)OC1C2CC3CC(C2)CC1C3 (mixture of isomers) [Example 4, 1,3,4,9-Tetrahydro-3-[[[1-(hydroxymethyl)-2-phenylethyl]amino]carbonyl]-3-methyl-2H-pyrido[3,4-b]indole-2-carboxylic acid,tricyclo[3.3.1.1^3,7]dec-2-yl ester (mixture of diastereomers)]
Ki [1]: 500 nM | Ki [2]: 500 nM

CC1(C(=O)NCC(N)c2ccccc2)Cc2c([nH]c3ccccc23)CN1C(=O)OC1C2CC3CC(C2)CC1C3 (mixture of isomers) [Example 8, 3-[[(2-Amino-2-phenylethyl)amino]carbonyl]-1,3,4,9-tetrahydro-3-methyl]-2H-pyrido[3,4-b]indole-2-carboxylic acid, tricyclo[3.3.1.1^3,7]dec-2-yl ester, (mixtures of diastereomers)]
Ki [1]: 3000 nM | Ki [2]: 3000 nM

CC1(C(=O)NCC(NC(=O)CCC(=O)OCc2ccccc2)c2ccccc2)Cc2c([nH]c3ccccc23)CN1C(=O)OC1C2CC3CC(C2)CC1C3 (mixture of isomers) [Example 11, 3-[3-[3-[2-[2-[1,4-Dioxo-4-(phenylmethoxy)butyl]amino]-2-phenylethyl]amino]carbonyl]-1,3,4,9-tetrahydro-3-methyl]-2H-pyrido[3,4-b]indole-2-carboxylic acid, tricyclo[3.3.1.1^3.7]dec-2-yl ester (mixture of diastereomers)]
Ki [1]: 3000 nM | Ki [2]: 3000 nM

CC1(C(=O)NCC(NC(=O)CC(=O)O)c2ccccc2)Cc2c([nH]c3ccccc23)CN1C(=O)OC1C2CC3CC(C2)CC1C3 (mixture of isomers) [Example 14, 3-[[[2-[(3-Carboxyacetyl)amino]-2-phenethyl]-amino]-carbonyl]-1,3,4,9-tetrahydro-3-methyl-2H-pyrido[3,4-b]indole-2-carboxylic acid, [tricyclo-[3.3.1.1^3,7]dec-2-yl ester (mixture of diastereomers)]
Ki [1]: 1000 nM | Ki [2]: 1000 nM

CC1(C(=O)NCC(NC(=O)/C=C\C(=O)O)c2ccccc2)Cc2c([nH]c3ccccc23)CN1C(=O)OC1C2CC3CC(C2)CC1C3 (mixture of isomers) [Example 15, 3-[[[2-[(3-Carboxy-1-oxo-2-propenyl)amino]-b 2-phenethyl]amino]carbonyl]1,3,4,9-tetrahydro-3-methyl-2H-pyrido[3,4-b]indole-2-carboxylic acid, [tricyclo-[3.3.1.1^3.7]dec-2-yl ester (mixture of diastereomers)]
Ki [1]: 710 nM | Ki [2]: 710 nM

CC1(C(=O)N[C@H](CNC(=O)CCC(=O)O)Cc2ccccc2)Cc2c([nH]c3ccccc23)CN1C(=O)OC1C2CC3CC(C2)CC1C3 (mixture of isomers) [Example 16, 3-[[1-(3-Carboxy-1-oxopropyl)amino]methyl]-1-phenethyl]amino]carbonyl]-1,3,4,9-tetrahydro-3-methyl2H-pyrido[3,4-b]indole-2-carboxylic acid, [tricyclo-[3.3.1.1^3,7]dec-2 yl ester (mixture of diastereomers)]
Ki [1]: 305 nM | Ki [2]: 305 nM

CC1(C(=O)NCCc2ccccc2)Cc2c([nH]c3ccccc23)CN1C(=O)OC1C2CC3CC(C2)CC1C3 (racemic) [Example 1, (±)1,3,4,9-Tetrahydro-3-methyl-3-[[2-phenylethyl)amino]carbonyl]-2H-pyrido[3,4-b]indole-2-carboxylic acid,tricyclo[3.3.1.1^3,7]dec-2-yl ester]
Ki [1]: 150 nM | Ki [2]: 150 nM

CC1(C(=O)NCCc2ccccc2)Cc2c([nH]c3ccccc23)CN1S(=O)(=O)NC1C2CC3CC(C2)CC1C3 (racemic) [Example 19, (+/-)-1,3,4,9-Tetrahydro-3-methyl-N-(2-phenylethyl)-2-(tricyclo[(3.3.1.1^3,7]dec-2-ylamino]sulfonyl]1H-pyrido-[3,4-b]indole-3-carboxamide]
Ki CCK-B [2]: iA

C[C@@]1(C(=O)NCCc2ccccc2)Cc2c([nH]c3ccccc23)CN1C(=O)OC1C2CC3CC(C2)CC1C3 (stereo partly shown) [Example 3]
Ki CCK-B [2]: iA
